# Tests used:
# thymocyte and lymphocyte = details: cited from earlier work
# B16 cell line = test: In vitro cell sensitivity: cell proliferation and viability by trypan blue dye exclusion; type: cell-based, murine
# Procedure: In vitro cell sensitivity studies were performed on a B16 cell line. Subconfluent melanoma cells were harvested, suspended in complete medium and seeded into 24-well plates (10^5 cells in a final volume of 2 ml/well). The cells were treated in triplicate wells for 24, 48 or 72 hr of culture with graded concentrations of SCV-07 ranging from 0.1 to 100 μg/ml. Cell proliferation and viability were determined by the trypan blue dye exclusion method by manually counting the cells with a hemocytometer.
# B16 melanoma = B16 melanoma tumor growth, tumor weight and survival in C57/Bl6 mice, i.p. treatment (Example 1); type: in vivo; details: for animals surviving: After 26 days
# Procedure: Tumors were induced by injecting 1×10^6 B16 melanoma cells subcutaneously in the hind leg of C57/Bl6 syngeneic mice. Mice were randomized into 5 groups of 10 animals and treated with SCV-07 at doses of 0.001, 0.01, or 0.10 mg/kg administered daily i.p. for 3 consecutive days for 2 weeks, starting 3 days after tumor implantation. Control groups were treated with saline or dacarbazine (DTIC) at a dose of 50 mg/kg i.p. for 3 days. Tumor growth was assessed every 3 days by a caliper and tumor weight was measured upon death.
# Mice were injected with B16 melanoma cells and divided into 5 groups of 10 mice each. Control mice were given injections of saline or dacarbazine (DTIC). The effects of different doses of SCV-07 were examined with respect to tumor growth rate and survival time.
# T helper cells = details: previous studies; cited from earlier work
compound,measurement,setting,value
"N[C@H](CCC(=O)N[C@@H](Cc1c[nH]c2ccccc12)C(=O)O)C(=O)O [SCV-07, γ-D-glutamyl-L-tryptophan]",Con-A-induced thymocyte and lymphocyte proliferation,thymocyte and lymphocyte,increases
same,effect on cell growth by direct cell counts,"B16 cell line; 24 and 48 hrs of culture, 0.1 to 100 μg/ml",dose-dependent inhibitory effect on cell growth
same,effect on number of viable cells,B16 cell line; higher concentration (100 μg/ml),toxic effects with a dramatic decrease in the number of viable cells
same,effect on cell growth,B16 cell line; low concentration,substantially cytostatic
same,animals surviving,B16 melanoma; SCV-07 highest dose (0.10 mg/kg i.p.),21%
same,animals surviving,B16 melanoma; SCV-07 lower doses,no surviving animals
same,MEAN TUMOR VOLUME,"B16 melanoma; DAY 10 after tumor inoculation, SCV-07 0.001 mg/kg i.p.",540 ± 180 mm^3
same,MEAN TUMOR VOLUME,"B16 melanoma; DAY 10 after tumor inoculation, SCV-07 0.01 mg/kg i.p.",490 ± 120 mm^3
same,MEAN TUMOR VOLUME,"B16 melanoma; DAY 10 after tumor inoculation, SCV-07 0.10 mg/kg i.p.",420 ± 150 mm^3
same,MEAN TUMOR VOLUME,"B16 melanoma; DAY 17 after tumor inoculation, SCV-07 0.001 mg/kg i.p.",625 ± 270 mm^3
same,MEAN TUMOR VOLUME,"B16 melanoma; DAY 17 after tumor inoculation, SCV-07 0.01 mg/kg i.p.",581 ± 210 mm^3
same,MEAN TUMOR VOLUME,"B16 melanoma; DAY 17 after tumor inoculation, SCV-07 0.10 mg/kg i.p.",495 ± 190 mm^3
same,MEAN TUMOR VOLUME,"B16 melanoma; DAY 24 after tumor inoculation, SCV-07 0.001 mg/kg i.p.",880 ± 240 mm^3
same,MEAN TUMOR VOLUME,"B16 melanoma; DAY 24 after tumor inoculation, SCV-07 0.01 mg/kg i.p.",720 ± 150 mm^3
same,MEAN TUMOR VOLUME,"B16 melanoma; DAY 24 after tumor inoculation, SCV-07 0.10 mg/kg i.p.",533 ± 170 mm^3
same,tumor growth,"B16 melanoma; SCV-07 0.001, 0.01, 0.10 mg/kg i.p.",inhibited tumor growth in a dose-dependent manner
same,mean tumor weight lower,"B16 melanoma; highest dose of SCV-07 (0.10 mg/kg i.p.), weight upon death",35%
same,mean tumor weight lower,"B16 melanoma; lower doses of SCV-07 (0.001, 0.01 mg/kg i.p.)",20%
same,IFN-γ production by thymic and spleen cells and circulating level in serum,T helper cells,increased
same,T helper cell polarization,T helper cells,stimulates a shift of T helper cells towards a TH1-like immune response
